Assay results: patent US20030181449A1 (priority 2003, published 2003)
“And” between values parts separate entries of the source, which are not always exact repeats. Identical values can stand only once. Like-named read-outs stand apart in the source and are kept apart here.

Columns and labels:
[1] = molecular target: T1, NMDA receptor glycine site (Rattus norvegicus, UniProt P35439); assay: Test A: Inhibition of binding of [3H]-MDL105,519 to brain membranes
T1 construct: The rat brain membranes used in the experiments were obtained from Analytical Biological Services Inc; tissue Analytical Biological Services Inc; host or cells: rat brain membranes (cerebral cortex and hippocampus, male Sprague Dawley rats)
Text: Test A: Inhibition of Binding of [^3H]-MDL105,519:
Binding of compounds to the NMDA receptor glycine site may be assessed by measuring the ability of test compounds to inhibit the binding of tritiated MDL105,519 to brain membranes bearing the receptor.
Briefly, fresh brain tissue including cerebral cortex and hippocampus from male Sprague Dawley rats was homogenized in 0.32 M sucrose and centrifuged at low speed to separate cellular membranes from other cellular components. The membranes were then washed 3 times using deionized water, followed by treatment with 0.04% Triton X-100. Finally, membranes were washed six times in 50 mM Tris citrate buffer, pH 7.4, and frozen at −80° C. until use.
[^3H]MDL105,519 (72 Ci/mmol) was purchased from Amersham. Cold MDL105,519 was purchased from Sigma/RBI. […] On the day of the experiment, brain membranes were thawed at room temperature and suspended in 50 mM tris acetate buffer, pH 7.4 (“TAB”). Seventy-five micro grams per milliliter protein (by using the BioRad dye) were used for competition binding. The experiments were carried out using 96-well plates. […] Non specific binding was determined by using 100 μM of unlabeled MDL105,519. […] After incubation, unbound [^3H]MDL105,519 was removed by filtration onto GF/B Unifilter plates using a Packard harvester. Filters were washed four times with ice cold TAB (total of 1.2 mL buffer). The plates were dried overnight at room temperature and bound radioactivity was measured on a Packard TopCount after the addition of 45 μL per well of the MICROSCINT O.
Human Brain Membranes: Human brain membranes were obtained from Analytical Biological Services Inc., and assays were performed as described for rat membranes.
Data analysis: Data was analyzed using a Microsoft Excel spreadsheet and GraphPad Prizm software and potency of compounds is expressed as the Ki (nM).

[2] = test system: formalin-induced nociceptive behaviors in rats; assay: Test B: Formalin test (formalin-induced paw flinches); type: in vivo, rat; conditions: dose 200 (unit not given), dosed three hours prior to formalin
Text: The Formalin test is an assay that assesses the capacity of a compound to inhibit formalin-induced nociceptive behaviors in rats (D. Dubuisson, et al., Pain 4, 161-174 (1977); H. Wheeler-Aceto et al., Psychopharmacology 104, 3544 (1991); T. J. Coderre, et al., Pain 54, 43-50 (1993)). In the test, two distinctive phases of formalin-induced behaviors are observed. A first phase response, caused by acute nociception to the noxious chemical (formalin) injected into the paw, occurs between zero and five minutes. A quiescent period of 5 to 15 min post injection follows. After the quiescent period a second phase response, caused by sensitization of the central neurons in the dorsal horn, occurs after 15 minutes and lasts up to 60 minutes. Sensitization of the central neurons in the spine augments a noxious afferent input and causes a stronger pain barrage to be transmitted to the brain. Therefore, inhibition of the second phase response indicates a central mechanism of drug action.
The procedure for the formalin test is as follows: male rats are placed in a plexiglass chamber and observed for 30-45 min. to observe their baseline activity. Animals are either pretreated with vehicle or with different doses of a test compound. Animals are dosed with vehicle or test compound three hours prior to injection of 0.05 mL of sterile 1% formalin under the dorsal skin of a hind paw. The number of paw flinches (responses) during the first phase (0-5 min.) and the second phase (20-35 min.) are scored and recorded. Flinch response is compared with the mean score of a saline control group and calculated as percentage inhibition. The ED50 is the dose of compound which produces 50% inhibition of nociceptive response in the first or second phase response. First phase responses may be inhibited by compounds that act peripherally and by compounds that act centrally. Second phase response are inhibited by centrally active compounds.
Student's t-test was used for statistical analysis to determine the significance of compound effects. Data are reported as a dose that yielded a % inhibition of a response.

[3] = test system: CCI rats (thermal hyperalgesia); assay: Test C: Neuropathic pain model (Chronic Constriction Injury), thermal hyperalgesia, paw withdrawal latency; type: in vivo, rat; conditions: oral; for Test C (% Inh.): percent decrease in hyperalgesia: at the MED; for Test C MED (minimum effective dose): three times daily for 5 days
Text: Test C: Neuropathic Pain Model (Chronic Constriction Injury):
The anti-hyperalgesic properties of a compound may be tested with the Chronic Constriction Injury (“CCI”) model. The test is a model for neuropathic pain associated with nerve injuries that can arise directly from trauma and compression, or indirectly from a wide range of diseases such as infection, cancer, metabolic conditions, toxins, nutritional deficiencies, immunological dysfunction, and musculoskeletal changes. In the model a unilateral peripheral hyperalgesia is produced in rats by nerve ligation (G. J. Bennett, et al., Pain 33, 87-107 (1988)).
Procedurally, Sprague-Dawley rats (250-350 g) are anesthetized with sodium pentobarbital and the common sciatic nerve is exposed at the level of the mid thigh by blunt dissection through the biceps femoris. A section of nerve (about 7 mm), proximal to the sciatic trifucation, is freed of tissue and ligated at four positions with chromic gut suture. The suture is tied with about 1 mm spacing between ligatures. The incision is closed in layers and the animals are allowed to recuperate. Thermal hyperalgesia is measured using a paw-withdrawal test (K. Hargreaves, et al., Pain 32, 77-88 (1988)). To perform the test, animals are habituated on an elevated glass floor. A radiant heat source is aimed at the mid-plantar hindpaw (sciatic nerve territory) through the glass floor with a 20 second cut-off used to prevent injury to the skin. The latencies for the withdrawal reflex in both hind paws are recorded.
Injured paws with ligated nerves show shorter paw withdrawal latencies compared to the uninjured or sham operated paws. Responses to test compounds are evaluated at different times after oral administration to determine the onset and duration of compound effect. When performing the test, groups of CCI rats receive either vehicle or the test compound orally three times daily for 5 days. Paw withdrawal latencies are measured each day 10 min before and 2 or 3 hr. after the first daily dose. Compound efficacy is expressed as mean percentage decrease of hyperalgesia compared to that of vehicle-treated animals, calculated as follows:
(Mean of vehicle group−Mean of compound group)×100/(Mean of vehicle group).
Data analysis was performed by the multiple means comparison test (Dunnett's test) and results are expressed and compound potencies are expressed as the MED (minimum effective dose), in mg/Kg/day, that yields a percent (%) decrease in hyperalgesia that is statistically significant.

[4] = inhibition of 1.2 nM [3H]MDL105,519 binding, brain membranes (rat or human not given)

Compound	Ki [1, 4]	further results
CC(C)NC(=O)c1ccc(Cn2nc(O)c3[nH]c4cc(Cl)ccc4c(=O)c3c2=O)cc1 [EX. 31, 7-chloro-4-hydroxy-2-(4-isopropylcarboxamide)phenylmethyl-1,2,5,10-tetrahydropyridazino[4,5-b]quinoline-1,10-dione]	41 nM	
O=C(NCc1ccco1)c1ccc(Cn2nc(O)c3[nH]c4cc(Cl)ccc4c(=O)c3c2=O)cc1 [Ex. 3, 7-Chloro-4hydroxy-2-(4-(furan-2-ylmethyl)aminocarbonyl)-benzyl-1,2,5,10-tetrahydropyridazino[4,5-b]quinoline-1,10-dione]		Ki [1]: 153 nM; Test B First phase Dose (% Inh.): % inhibition of nociceptive response ([2]; first phase (0-5 min)): 200 (33%); Test B Second phase Dose (% Inh.): % inhibition of nociceptive response ([2]; second phase (20-35 min)): 200 (−18%); Test C (% Inh.): percent decrease in hyperalgesia [3]: 96%; Test C MED (minimum effective dose) [3]: 30 mg/kg/day
O=c1c2ccc(Cl)cc2[nH]c2c(O)nn(Cc3ccc4nc[nH]c4c3)c(=O)c12 [Ex. 5, 7-Chloro-4-hydroxy-2-(benzimidazol-5-ylmethyl)-1,2,5,10-tetrahydropyridazino[4,5-b]quinoline-1,10-dione methanesulfonate]	117 nM	
Cc1cc(Cn2nc(O)c3[nH]c4cc(Cl)ccc4c(=O)c3c2=O)ccc1O [Ex. 6, 7-Chloro-4-hydroxy-2-(4-hydroxy-3-methyl-benzyl)-1,2,5,10-tetrahydropyridazino[4,5-b]quinoline-1,10-dione]	67.9 nM and 62.5 nM	
CSc1ccccc1Cn1nc(O)c2nc3cc(Cl)ccc3c(O)c2c1=O [Ex. 7, 7-Chloro-4,10-dihydroxy-2-[(2-methylthio)phenylmethyl]-2-hydropyridazino[4,5-b]quinoline-1-one]	111 nM	melting point: 290 to 292 °C
COC(=O)c1c(OC)cc(Cn2nc(O)c3[nH]c4cc(Cl)ccc4c(=O)c3c2=O)cc1OC [Ex. 8, 7-Chloro-2-(4-(2,6-dimethoxy)methylbenzoate)4hydroxy-1,2,5,10-tetrahydropyridazino[4,5-b]quinoline-1,10-dione]	35 nM	
CN(C)C(=O)Nc1ccc(Cn2nc(O)c3[nH]c4cc(Cl)ccc4c(=O)c3c2=O)cc1 [Ex. 11, 7-chlorohydroxy-2-(4-dimethylaminocarboxamide)phenylmethyl-1,2,5,10-tetrahydropyridazino[4,5-b]quinoline-1,10-dione]		Test C (% Inh.): percent decrease in hyperalgesia [3]: 80%; Test C MED (minimum effective dose) [3]: 15 mg/kg/day
O=C(Nc1ccc(Cn2nc(O)c3[nH]c4cc(Cl)ccc4c(=O)c3c2=O)cc1)N1CCCC1 [Ex. 13, 7-chloro-4-hydroxy-2-(4pyrrolidinylcarboxamide)phenylmethyl-1,2,5,10-tetrahydropyridazino[4,5-b]quinoline-1,10-dione]	67.5 nM	
O=C(Nc1cccc(Cn2nc(O)c3[nH]c4cc(Cl)ccc4c(=O)c3c2=O)c1)N1CCCC1 [Ex. 15, 7-Chloro-4-hydroxy-2-(3-pyrrolidinylcarboxamide)phenylmethyl-1,2,5,10-tetrahydropyridazino[4,5-b]quinoline-1,10-dione]	15.6 nM	
O=C(Nc1ccccc1)Nc1cccc(Cn2nc(O)c3[nH]c4cc(Cl)ccc4c(=O)c3c2=O)c1 [Ex. 18, 7-chloro-4-hydroxy-2-(3-phenylaminocarboxamide)phenylmethyl-1,2,5,10-tetrahydropyridazino[4,5-b]quinoline-1,10-dione]	79.9 nM	
O=C(Nc1cccc(Cn2nc(O)c3[nH]c4cc(Cl)ccc4c(=O)c3c2=O)c1)NC1CCCCC1 [Ex. 19, 7-chloro-4-hydroxy-2-(3-cyclohexylaminocarboxamide)phenylmethyl-1,2,5,10-tetrahydropyridazino[4,5-b]quinoline-1,10-dione]	33.3 nM	

The next lines start with results.

Ki [1, 4]	Compound	further results
65 nM	CON(C)C(=O)c1cccc(Cn2nc(O)c3[nH]c4cc(Cl)ccc4c(=O)c3c2=O)c1	
91 nM	CC(C)OC(=O)c1ccc(Cn2nc(O)c3[nH]c4cc(Cl)ccc4c(=O)c3c2=O)cc1 [Ex. 9, 7-Chloro-4-hydroxy-2-(4-iso-propoxycarbonylbenzyl)-1,2,5,10-tetrahydropyridazino[4,5-b]quinoline-1,10-dione]	
199 nM	O=c1c2ccc(Cl)cc2[nH]c2c(O)nn(Cc3ccc(I)cc3)c(=O)c12 [Ex. 20, 7-Chloro-4-hydroxy-2-(4-iodophenylmethyl)-1,2,5,10-tetrahydropyridazino[4,5-b]quinoline-1,10-dione]	
1 nM	O=c1c2ccc(Cl)cc2[nH]c2c(O)nn(Cc3ccc(C#CCO)cc3)c(=O)c12 [Ex. 21]	
141 nM	COCCNC(=O)c1ccc(Cn2nc(O)c3[nH]c4cc(Cl)ccc4c(=O)c3c2=O)cc1 [Ex. 23]	
126 nM	CNC(=O)c1cccc(Cn2nc(O)c3[nH]c4cc(Cl)ccc4c(=O)c3c2=O)c1 [Ex. 25, 7-Chloro-4-hydroxy-2-[3-(methylaminocarbonyl)-benzyl]-1,2,5,10-tetrahydropyridazino[4,5-b]quinoline-1,10-dione]	
191 nM	COCCN(CCOC)C(=O)c1cccc(Cn2nc(O)c3[nH]c4cc(Cl)ccc4c(=O)c3c2=O)c1 [Ex. 27, 7-Chloro-4-hydroxy-2-[3-(di-(2-methoxy)ethyl)aminocarbonylbenzyl]-1,2,5,10-tetrahydropyridazino[4,5-b]quinoline-1,10-dione]	
88 nM	O=C(c1ccc(Cn2nc(O)c3[nH]c4cc(Cl)ccc4c(=O)c3c2=O)cc1)N1CCOCC1 [Ex. 29, 7-Chloro-4-hydroxy-2-[4-(morpholine-4-carbonyl)-benzyl]-1,2,5,10-tetrahydropyridazino[4,5-b]quinoline-1,10-dione]	
98 nM	CC(=O)Nc1ccc(Cn2nc(O)c3[nH]c4cc(Cl)ccc4c(=O)c3c2=O)cc1 [Ex. 30, 7-Chloro-4-hydroxy-2-[4-(methylcarbonyl-amino)-benzyl]-1,2,5,10-tetrahydropyridazino[4,5-b]quinoline-1,10-dione]	
